The target in the assay is MGAT2 (microsomal fraction of human small intestine) (Homo sapiens (Human), UniProt Q3SYC2). Description: Test Example 2: Test of MGAT2 inhibitory action (microsomal fraction of human small intestine, 3H-labeled 2-monooleoyl glycerol). Format: biochemical. To be noted: microsomal fraction of human small intestine 5 μg/ml; 4 μM oleoyl-CoA, 1.25 μM 2-monooleoyl glycerol, 0.125 μM 3H-labeled 2-monooleoyl glycerol; room temperature 30 min; read-out: Activity Value [nM] (IC50, concentration at which 50% of the products 3H-labeled dioleoyl glycerol and trioleoyl glycerol was inhibited). On the procedure: An MGAT2 inhibition test for test compounds was conducted in accordance with a partially modified version of the method described in John F. Lockwood et al., Am. J. Physiol. Endocrinol. Metab., 2003, 285, E927.
Sequence of MGAT2 (microsomal fraction of human small intestine) (Q3SYC2 whole entry): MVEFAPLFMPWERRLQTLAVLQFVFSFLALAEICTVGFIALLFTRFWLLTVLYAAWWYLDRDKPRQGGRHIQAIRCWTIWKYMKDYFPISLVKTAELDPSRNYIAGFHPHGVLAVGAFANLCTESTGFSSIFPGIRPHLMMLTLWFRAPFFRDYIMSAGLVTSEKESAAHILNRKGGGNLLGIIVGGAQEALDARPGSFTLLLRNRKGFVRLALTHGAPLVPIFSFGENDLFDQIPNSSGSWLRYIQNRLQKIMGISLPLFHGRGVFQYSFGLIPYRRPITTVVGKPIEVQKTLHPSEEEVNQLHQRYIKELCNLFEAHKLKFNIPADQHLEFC
A 10 mg/mL microsomal fraction of human small intestine (duodenum- and jejunum-derived fraction purchased from Becton Dickinson Japan) was used as an enzyme source.
The test was conducted using a flat-bottom 96-well plate (Corning).
A buffer solution with final concentrations of 5 mM magnesium chloride, 1.25 mg/ml bovine serum albumin and 100 mM Tris-HCl (pH=7.5) was prepared and the microsomal fraction of human small intestine was added thereto to give a final concentration of 5 μg/ml. […] Thereafter, final concentrations of 5 mM magnesium chloride, 1.25 mg/ml bovine serum albumin, 100 mM Tris-HCl (pH=7.5), 4 μM oleoyl-CoA, 1.25 μM 2-monooleoyl glycerol and 0.125 μM ^3H-labeled 2-monooleoyl glycerol (Muromachi Yakuhin Co., Ltd.) were added thereto to give a total volume of 100 μl. This mixture was reacted at room temperature for 30 min.
The reaction was stopped by adding an equal amount of isopropanol to the reaction mixture. The substrate contained in the reaction mixture (^3H-labeled 2-monooleoyl glycerol) and the reaction products (^3H-labeled dioleoyl glycerol and trioleoyl glycerol) were separated by adsorbing them onto an octadecylsilane resin (Wako gel 50C18) (Wako Pure Chemical Industries, Ltd.), removing the substrate by use of 80% isopropanol, and then eluting the reaction products with 100% isopropanol. The amounts of the reaction products were measured with MicroBeta (PerkinElmer Japan).
For the compound `CC(C)(C)c1ccc(CCN2CCc3cc(S(=O)(=O)Nc4ccc(OCC[C@H]5CCOC[C@@H]5F)cc4F)ccc3C2)cc1` [Working Example 8-15], the IC50 was 204 nM. Under `CC(C)(C)c1cnc(CCN2CCc3cc(S(=O)(=O)Nc4ccc(CCCC5CCCC5)cc4F)ccc3C2)cn1` [Working Example 9-23] stands 46 nM. Under `O=S(=O)(Nc1ccc(CCCC2CCCC2)cc1F)c1ccc2c(c1)CCN(CCc1ccc(C(F)(F)F)cn1)C2` [Working Example 9-24] stands 46 nM.

(Values after patent US9035059B2, “Nitrogen-containing condensed heterocyclic compound” (TAISHO PHARMACEUTICAL CO., LTD., priority 2011, dated 2015).)
